From US20050090529A1, “3,5 Disubstituted indazole compounds with nitrogen-bearing 5-membered heterocycles, pharmaceutical compositions, and methods for mediating or inhibiting cell proliferation” (PFIZER INC, priority 2003, published 2005)
Converted amounts (≈) assume the structure as drawn.

Assays:
CDK2/Cyclin A = molecular target: T1, CDK2/Cyclin A (Homo sapiens, UniProt P24941); assay: Inhibition of CDK2/Cyclin A retinoblastoma kinase activity (apparent Ki); assay type: biochemical; conditions: read-out: CDK2 Ki
T1 construct: made in house; host or cells: CDK2: insect cells (baculovirus); cyclin A: E. coli
Summary of the method: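 Cyclin A complex (proteolyzed cyclin) purified by gel filtration; enzyme-initiated reactions ran 20 min at 30 °C, transferring radiolabelled phosphate from [32P]/[33P]ATP onto a protein substrate, stopped with EDTA and quantified by phosphorimager.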

[1] = Measurement of kinetic solubility; conditions: 100 mM sodium phosphate buffer, pH 6.5, aqueous buffer, kinetic from dmso stock
Method: Kinetic solubility was determined with a […] stock solution from the compound(s) of interest. […] Samples and standards were then centrifuged and an aliquot was removed for HPLC analysis. Samples and standards were analyzed by HPLC and a final concentration for the sample was determined based on a one-point calibration curve from the corresponding standard. Results were reported as μg's/mL.

Structure (SMILES) | Ki (CDK2/Cyclin A) [µM] | solubility [1] [mg/mL]
CCNCc1cncc(-c2ccc3[nH]nc(-c4ncc[nH]4)c3c2)c1CC [Example 47, Ethyl-{4-ethyl-5-[3-(1H-imidazol-2-yl)-1H-indazol-5-yl]-pyridin-3-ylmethyl}-amine] | < 0.05 | > 0.12
CCNCc1cncc(-c2ccc3[nH]nc(-c4ncc(C(=O)NCCN(C)C)[nH]4)c3c2)c1C [Example 54, N-[2-(dimethylamino)ethyl]-2-(5-{5-[(ethylamino)methyl]-4-methylpyridin-3-yl}-1H-indazol-3-yl)-1H-imidazole-5-carboxamide] | < 0.05 | > 0.12
CCNCc1cncc(-c2ccc3[nH]nc(-c4cnc(-c5ccncc5)[nH]4)c3c2)c1C [Example 96, Ethyl-{4-methyl-5-[3-(2-pyridin-4-yl-3H-imidazol-4-yl)-1H-indazol-5-yl]-pyridin-3-ylmethyl}-amine] | 0.05 to 0.2 | > 0.12
CCNCc1cncc(-c2ccc3[nH]nc(-c4nc(C(=O)N5CCCCCC5)c[nH]4)c3c2)c1C [Example 74, N-[(5-{3-[5-(azepan-1-ylcarbonyl)-1H-imidazol-2-yl]-1H-indazol-5-yl}-4-methylpyridin-3-yl)methyl]ethanamine] | < 0.05 | > 0.12
CCNCc1cncc(-c2ccc3[nH]nc(-c4nc(-c5ccccc5)c(C(=O)N5CCCCC5)[nH]4)c3c2)c1C [Example 9, {2-[5-(5-Ethylaminomethyl-4-methyl-pyridin-3-yl)-1H-indazol-3-yl]-5-phenyl-3H-imidazol-4-yl}-piperidin-1-yl-methanone] | > 0.2 | 0.02 to 0.12 (≈ 38.5 to 231 µM)
CCNCc1cncc(-c2ccc3[nH]nc(-c4nc(-c5ccccc5)c(C(=O)N5CCC[C@@H]5COC)[nH]4)c3c2)c1C [Example 15, {2-[5-(5-Ethylaminomethyl-4-methyl-pyridin-3-yl)-1H-indazol-3-yl]-5-phenyl-3H-imidazol-4-yl}-(2-methoxymethyl-pyrrolidin-1-yl)-methanone] | > 0.2 | > 0.12
CCNCc1cncc(-c2ccc3[nH]nc(-c4nc(C(=O)NC5CC6CCC(C5)N6)c[nH]4)c3c2)c1C (centres unmarked) [Example 77, N-8-azabicyclo[3.2.1]oct-3-yl-2-(5-{5-[(ethylamino)methyl]-4-methylpyridin-3-yl}-1H-indazol-3-yl)-1H-imidazole-5-carboxamide] | > 0.2 | > 0.12
CCNCc1cncc(-c2ccc3[nH]nc(-c4nc(-c5ccccc5)c[nH]4)c3c2)c1C [Example 30, Ethyl-{4-methyl-5-[3-(4-phenyl-1H-imidazol-2-yl)-1H-indazol-5-yl]-pyridin-3-ylmethyl}-amine] | < 0.05 | 0.02 to 0.12 (≈ 49 to 294 µM)
CCNCc1cncc(-c2ccc3[nH]nc(-c4nc(CC(C)C)c(C)[nH]4)c3c2)c1C [Example 20, Ethyl-{5-[3-(4-isobutyl-5-methyl-1H-imidazol-2-yl)-1H-indazol-5-yl]-4-methyl-pyridin-3-ylmethyl}-amine] | < 0.05 | 0.02 to 0.12 (≈ 49.7 to 298 µM)
CCNCc1cncc(-c2ccc3[nH]nc(-c4nc(C(=O)NCC)c[nH]4)c3c2)c1C [Example 63, N-ethyl-2-(5-{5-[(ethylamino)methyl]-4-methylpyridin-3-yl}-1H-indazol-3-yl)-1H-imidazole-5-carboxamide] | < 0.05 | > 0.12
CCNCc1cncc(-c2ccc3[nH]nc(-c4ncc(C(=O)N5CCN(Cc6ccccn6)CC5)[nH]4)c3c2)c1C [Example 83, N-({4-methyl-5-[3-(5-{[4-(pyridin-2-ylmethyl)piperazin-1-yl]carbonyl}-1H-imidazol-2-yl)-1H-indazol-5-yl]pyridin-3-yl}methyl)ethanamine] | < 0.05 | > 0.12
CCNCc1cncc(-c2ccc3[nH]nc(-c4nc(CC)c(C)[nH]4)c3c2)c1C [Example 23, Ethyl-{5-[3-(4-ethyl-5-methyl-1H-imidazol-2-yl)-1H-indazol-5-yl]-4-methyl-pyridin-3-ylmethyl}-amine] | < 0.05 | > 0.12
CCNCc1cncc(-c2ccc3[nH]nc(-c4cnco4)c3c2)c1C [Example 87, N-({4-methyl-5-[3-(1,3-oxazol-5-yl)-1H-indazol-5-yl]pyridin-3-yl}methyl)ethanamine] | 0.05 to 0.2 | > 0.12
CCNCc1cncc(-c2ccc3[nH]nc(-c4nc(-c5cccc(F)c5)c[nH]4)c3c2)c1C [Example 32, Ethyl-(5-{3-[4-(3-fluoro-phenyl)-1H-imidazol-2-yl]-1H-indazol-5-yl}-4-methyl-pyridin-3-ylmethyl)-amine] | < 0.05 | > 0.12
CCNCc1cncc(-c2ccc3[nH]nc(-c4nc(C(=O)O)c[nH]4)c3c2)c1C [Example 86, 2-(5-{5-[(ethylamino)methyl]-4-methylpyridin-3-yl}-1H-indazol-3-yl)-1H-imidazole-5-carboxylic acid] | 0.05 to 0.2 | > 0.12
CCNCc1cncc(-c2ccc3[nH]nc(-c4nc(-c5cccc(OC)c5)c[nH]4)c3c2)c1C [Example 35, Ethyl-(5-{3-[4-(3-methoxy-phenyl)-1H-imidazol-2-yl]-1H-indazol-5-yl}-4-methyl-pyridin-3-ylmethyl)-amine] | < 0.05 | 0.02 to 0.12 (≈ 45.6 to 274 µM)
CCNCc1cncc(-c2ccc3[nH]nc(-c4nc(-c5ccccc5)c(C(=O)N5CCC[C@H]5COC)[nH]4)c3c2)c1C [Example 14, {2-[5-(5-Ethylaminomethyl-4-methyl-pyridin-3-yl)-1H-indazol-3-yl]-5-phenyl-3H-imidazol-4-yl}-(2-methoxymethyl-pyrrolidin-1-yl)-methanone] | > 0.2 | > 0.12
CCNCc1cncc(-c2ccc3[nH]nc(-c4ncc(C(=O)N[C@H]5CCCCNC5=O)[nH]4)c3c2)c1C [Example 75, 2-(5-{5-[(ethylamino)methyl]-4-methylpyridin-3-yl}-1H-indazol-3-yl)-N-[(3S)-2-oxoazepan-3-yl]-1H-imidazole-5-carboxamide] | < 0.05 | > 0.12
c1c[nH]c(-c2n[nH]c3ccc(-c4cncc5[nH]ccc45)cc23)n1 [Example 94, 3-(1H-Imidazol-2-yl)-5-(1H-pyrrolo[2,3-c]pyridin-4-yl)-1H-indazole] | < 0.05 | 0.02 to 0.12 (≈ 66.6 to 400 µM)
